This experiment concerns nude mice, LX-1 lung xenograft intrarenal, tumor weight T/C. As to the kind of experiment: NCI In Vivo Anticancer Drug Screen. Data for tumor model Human Lung LX-1 Xenograft (intrarenal inoculation) in NU/NU Swiss (nude) mice. The following applies: endpoint: mean tumor weight change, higher = larger tumour. The method in brief: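 Tumor-bearing mice receive test compound or vehicle; tumor size is then measured in each group. The treated value is divided by the vehicle value to give T/C.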

[1] abbreviates: dose: 50.0 mg/kg/injection, schedule: Q04DX003 (sc), vehicle: suspension in saline.
[2] abbreviates: dose: 100.0 mg/kg/injection, schedule: Q04DX003 (sc), vehicle: saline.
Where [3] appears, read: dose: 100.0 mg/kg/injection, schedule: Q04DX003 (sc), vehicle: suspension in saline.
The mark [4] stands for this setting: dose: 200.0 mg/kg/injection, schedule: Q04DX003 (sc), vehicle: saline.
The mark [5] stands for this setting: dose: 75.0 mg/kg/injection, schedule: Q04DX003 (sc), vehicle: saline with Tween-80.
Where [6] appears, read: dose: 300.0 mg/kg/injection, schedule: Q04DX003 (sc), vehicle: saline with Tween-80.

Our source for the T/C values is PubChem BioAssay AID264 (DTP/NCI, 2004).

Inconclusive results are not listed.

With `NC(Cn1ccc(=O)c(O)c1)C(=O)O` (configuration not stated), the T/C reads like this: (dose: 300.0 mg/kg/injection, schedule: Q04DX003 (sc), vehicle: suspension in saline) 115 % of control; (dose: 600.0 mg/kg/injection, schedule: Q04DX003 (sc), vehicle: suspension in saline) 104 % of control; (dose: 1200.0 mg/kg/injection, schedule: Q04DX003 (sc), vehicle: suspension in saline) 119 % of control; (dose: 2400.0 mg/kg/injection, schedule: Q04DX003 (sc), vehicle: suspension in saline) 73 % of control.
Consider `O=C1c2ccccc2C(=O)c2c(NCCNCCO)ccc(O)c21`, for which the T/C by setting is: (dose: 12.5 mg/kg/injection, schedule: Q04DX003 (sc), vehicle: suspension in saline) 94 % of control; (dose: 25.0 mg/kg/injection, schedule: Q04DX003 (sc), vehicle: saline) 90 % of control; (dose: 25.0 mg/kg/injection, schedule: Q04DX003 (sc), vehicle: suspension in saline) 108 % of control; (dose: 50.0 mg/kg/injection, schedule: Q04DX003 (sc), vehicle: saline) 74 % of control; under setting [1], 90 % of control; under setting [2], 61 % of control. The T/C under setting [3] was 92 % of control and the T/C under setting [4] was 93 % of control.
As to `CC[C@@]1(O)C[C@H](OC2CC(N(C)C)C(OC3CC(O)C(OC4CCC(=O)C(C)O4)C(C)O3)C(C)O2)c2c(cc3c(c2O)C(=O)c2c(O)cccc2C3=O)[C@H]1C(=O)OC` (some centres not stated), the T/C is 105 % of control (dose: 0.5 mg/kg/injection, schedule: Q01DX010 (sc), vehicle: water); 69 % of control (dose: 1.0 mg/kg/injection, schedule: Q01DX010 (sc), vehicle: water); 24 % of control (dose: 1.66 mg/kg/injection, schedule: Q04DX003 (ip), vehicle: water); 83 % of control (dose: 2.0 mg/kg/injection, schedule: Q01DX010 (sc), vehicle: water); 22 % of control (dose: 3.33 mg/kg/injection, schedule: Q04DX003 (ip), vehicle: water).
On to `CCCCCCCCCCCCCC#CC(=O)O`, for which the T/C was 89 % of control under setting [5]; 112 % of control (dose: 150.0 mg/kg/injection, schedule: Q04DX003 (sc), vehicle: saline with Tween-80); 105 % of control under setting [6].
Take `CN(C(=S)S(=O)(=O)C12CC3CC(CC(C3)C1)C2)c1ccccc1`: the T/C (dose: 50.0 mg/kg/injection, schedule: Q04DX003 (sc), vehicle: Klucel (hydroxypropylcellulose) (HPC)) is 164 % of control; the T/C (dose: 100.0 mg/kg/injection, schedule: Q04DX003 (sc), vehicle: Klucel (hydroxypropylcellulose) (HPC)) is 161 % of control; the T/C (dose: 400.0 mg/kg/injection, schedule: Q04DX003 (sc), vehicle: Klucel (hydroxypropylcellulose) (HPC)) was 176 % of control.
In the case of `C[n+]1c(/C=C\C=C\N2CCCCC2)sc2ccccc21`, the T/C by setting is: (dose: 1.5 mg/kg/injection, schedule: Q04DX003 (sc), vehicle: Klucel (hydroxypropylcellulose) (HPC)) 52 % of control; (dose: 3.0 mg/kg/injection, schedule: Q04DX003 (sc), vehicle: Klucel (hydroxypropylcellulose) (HPC)) 83 % of control.
As to `CCc1nc(N)nc(N)c1-c1ccc(Cl)c([N+](=O)[O-])c1`, the T/C is 99 % of control (dose: 9.38 mg/kg/injection, schedule: Q04DX003 (sc), vehicle: saline with Tween-80); 108 % of control (dose: 18.75 mg/kg/injection, schedule: Q04DX003 (sc), vehicle: saline with Tween-80); 99 % of control (dose: 37.5 mg/kg/injection, schedule: Q04DX003 (sc), vehicle: saline with Tween-80); 119 % of control under setting [5].
Turning to `[Cl][Pt+2][Cl].[NH-]CC1(C[NH-])CCC1`, under setting [1], the T/C was 121 % of control.
In the case of `O=C(O)CC(NC(=O)CP(=O)(O)O)C(=O)O.[NH-]C1CCCCC1[NH-].[Pt+2]` (configuration not stated), the T/C runs as follows: (dose: 6.25 mg/kg/injection, schedule: Q04DX003 (sc), vehicle: dextrose) 86 % of control; (dose: 12.5 mg/kg/injection, schedule: Q04DX003 (sc), vehicle: dextrose) 72 % of control; (dose: 25.0 mg/kg/injection, schedule: Q04DX003 (sc), vehicle: dextrose) 54 % of control.
Consider `O=NN(CCCl)C(=O)NC1CCC(=O)NC1=O` (configuration not stated), for which the T/C reads like this: (dose: 1.56 mg/kg/injection, schedule: Q01DX010 (ip), vehicle: saline with Tween-80) 29 % of control; (dose: 3.13 mg/kg/injection, schedule: Q01DX010 (ip), vehicle: saline with Tween-80) 3 % of control; (dose: 3.13 mg/kg/injection, schedule: Q01DX010 (sc), vehicle: saline with Tween-80) 10 % of control; (dose: 5.2 mg/kg/injection, schedule: Q04DX003 (ip), vehicle: saline with Tween-80) 5 % of control; (dose: 6.25 mg/kg/injection, schedule: Q01DX010 (ip), vehicle: saline with Tween-80) -74 % of control; (dose: 10.4 mg/kg/injection, schedule: Q04DX003 (ip), vehicle: saline with Tween-80) -94 % of control.
Regarding `Clc1ccc(C(c2ccccc2Cl)C(Cl)Cl)cc1` (configuration not stated), the T/C (dose: 400.0 mg/kg/injection, schedule: Q01DX010 (sc), vehicle: saline with Tween-80) is 80 % of control; the T/C (dose: 800.0 mg/kg/injection, schedule: Q01DX010 (sc), vehicle: saline with Tween-80) was 40 % of control; the T/C (dose: 800.0 mg/kg/injection, schedule: Q01DX010 (sc), vehicle: saline) was 69 % of control; the T/C (dose: 1600.0 mg/kg/injection, schedule: Q01DX010 (sc), vehicle: saline with Tween-80) was 56 % of control; the T/C (dose: 1600.0 mg/kg/injection, schedule: Q01DX010 (sc), vehicle: saline) was 55 % of control; the T/C (dose: 3200.0 mg/kg/injection, schedule: Q01DX010 (sc), vehicle: saline with Tween-80) was 24 % of control. The T/C is 80 % of control (dose: 3200.0 mg/kg/injection, schedule: Q01DX010 (sc), vehicle: saline) and 73 % of control (dose: 6400.0 mg/kg/injection, schedule: Q01DX010 (sc), vehicle: saline).
On to `CC1=CC(C)(C)Nc2ccc(CSc3ccccc3)cc21`, for which the T/C is 105 % of control (dose: 75.0 mg/kg/injection, schedule: Q01DX010 (sc), vehicle: saline + Tween-80 + alcohol); 105 % of control (dose: 150.0 mg/kg/injection, schedule: Q01DX010 (sc), vehicle: saline + Tween-80 + alcohol); 85 % of control (dose: 300.0 mg/kg/injection, schedule: Q01DX010 (sc), vehicle: saline + Tween-80 + alcohol).
As for `CC(=O)N(C)c1ccc(Nc2cc(C)[nH]c3ccc4ncnc4c23)cc1`, the T/C runs as follows: (dose: 50.0 mg/kg/injection, schedule: Q04DX003 (sc), vehicle: saline with Tween-80) 101 % of control; (dose: 100.0 mg/kg/injection, schedule: Q04DX003 (sc), vehicle: saline with Tween-80) 71 % of control; (dose: 200.0 mg/kg/injection, schedule: Q04DX003 (sc), vehicle: saline with Tween-80) 56 % of control.
On to `COc1cc(C2c3cc4c(cc3C(O)C(CO)C2CO)OCO4)cc(OC)c1OC` (configuration not stated), for which the T/C was 103 % of control under setting [6]; 95 % of control (dose: 600.0 mg/kg/injection, schedule: Q04DX003 (sc), vehicle: saline with Tween-80); 90 % of control (dose: 1200.0 mg/kg/injection, schedule: Q04DX003 (sc), vehicle: saline with Tween-80); 38 % of control (dose: 2400.0 mg/kg/injection, schedule: Q04DX003 (sc), vehicle: saline with Tween-80).
In the case of `CCC(C(=O)O)C(=O)O.[NH2-].[NH2-].[Pt+2]`, the T/C by setting is: (dose: 37.5 mg/kg/injection, schedule: Q04DX003 (sc), vehicle: saline) 110 % of control; (dose: 75.0 mg/kg/injection, schedule: Q04DX003 (sc), vehicle: suspension in saline) 54 % of control; under setting [2], 92 % of control; under setting [3], 46 % of control; (dose: 150.0 mg/kg/injection, schedule: Q04DX003 (sc), vehicle: suspension in saline) 40 % of control; under setting [4], 76 % of control. For the same compound, the T/C (dose: 200.0 mg/kg/injection, schedule: Q04DX003 (sc), vehicle: suspension in saline) is 27 % of control.
`C=C(NC(=O)C(=C)NC(=O)c1csc(C2=NC3c4csc(n4)C4NC(=O)c5csc(n5)C(C(C)(O)C(C)O)NC(=O)C5CSC(=N5)/C(=C/C)NC(=O)C(C(C)O)NC(=O)c5csc(n5)C3(CC2)NC(=O)C(C)NC(=O)C(=C)NC(=O)C(C)NC(=O)C(C(C)CC)NC2C=Cc3c(C(C)O)cc(nc3C2O)C(=O)OC4C)n1)C(N)=O` (configuration not stated): the T/C is, setting by setting: (dose: 200.0 mg/kg/injection, schedule: Q01DX010 (sc), vehicle: Klucel (hydroxypropylcellulose) (HPC)) 90 % of control; (dose: 400.0 mg/kg/injection, schedule: Q01DX010 (sc), vehicle: Klucel (hydroxypropylcellulose) (HPC)) 65 % of control; (dose: 1600.0 mg/kg/injection, schedule: Q01DX010 (sc), vehicle: Klucel (hydroxypropylcellulose) (HPC)) 53 % of control.
